How the values were obtained:
[1] = oral; cited from earlier work
[2] = in vivo
Protocol: Incidence of treatment-emergent Adverse Events (AEs), AEs leading to withdrawal, and Serious Adverse Events (SAEs) grouped by system organ class (SOC) were calculated as needed. Clinically significant abnormal values for clinical laboratory, AM cortisol (≤138 nmol/L), urinalysis, vital signs, and electrocardiogram (ECG) findings were measured as needed.
A total of 24 subjects were enrolled and randomized to one of six sequences to receive each of the three treatments over the three periods with a 7-day washout between doses.
C. […] These subjects continued fasting for at least 4 hours post-dose. • Subjects on the “Fed” treatment (Treatment B) began a high-fat breakfast 30 minutes after an overnight fast of at least 10 hours. […] Subjects were administered 6.0 mg of ATP-1011 immediately prior to bedtime (4 hours following the standard meal).
Randomization (Day 1): Subjects were randomized to one of six sequences (See Table 15) to receive a single dose of each treatment over three periods, with a 7-day washout between doses.
Treatment Periods: For each period, subjects were in-patients for 5 days (Days 0-4, Days 7-11, Days 14-18) with PK samples collected over 72 hours following each dose. Subjects were checked-in to the CRU the evening prior to each dosing (Day 0, 7, and 14) and received treatment according to the sequence on which they were randomized on Day 1. […] All meals (AM and 4 hours prior to bedtime) were standardized for all subjects and all periods. Subjects completed these meals within 30 minutes. […] Subjects dosed HS followed the same PK schedule with PK samples scheduled relative to the bedtime dose.
Pharmacokinetics: Derived plasma-PK-parameter descriptive statistics were summarized by treatment. […] Additional comparisons were assessed between HS dosing and Fed and Fasted administration.
The following PK parameters were estimated by noncompartmental methods from plasma samples. Below limit of quantitation concentrations were treated as zero for all PK analyses. All deviations from the scheduled sampling time of 2 minutes or more were taken into consideration for evaluation of the PK parameters.
The trapezoidal rule was used to estimate the area under the curve (linear trapezoidal linear interpolation) and the terminal phase were estimated by maximizing the coefficient of determination estimated from the log-linear regression model. However, disposition parameters were not estimated for individual concentration-time profiles where the terminal log-linear phase cannot be reliably characterized.
Food Effect Analysis: The 90% confidence interval for the exponential of the difference in LSmeans between B (fed) and A (fasted) was calculated for the ln-transformed parameters (Test to Reference ratio of geometric LSmeans).
HS vs Fasted Analysis: The 90% confidence interval for the exponential of the difference in LSmeans between C (HS) and A (fasted) was calculated for the ln-transformed parameters (Test to Reference ratio of geometric LSmeans).
HS vs Fed Analysis: The 90% confidence interval for the exponential of the difference in LSmeans between C (HS) and B (fed) was calculated for the ln-transformed parameters (Test to Reference ratio of geometric LSmeans).
Treatments Administered: Study drug was administered by qualified study staff only in accordance with the procedures described in this protocol. […] All subjects were instructed to take the study drug tablet orally without water or other liquids. […]

[3] = Previous PK studies of APT-1011 (food effect, QD vs BID); format: in vivo, human; conditions: single-dose administration

SMILES: CCC(=O)O[C@]1(C(=O)SCF)[C@H](C)C[C@H]2[C@@H]3C[C@H](F)C4=CC(=O)C=C[C@]4(C)[C@@]3(F)[C@@H](O)C[C@@]21C [FP, Fluticasone propionate]
- expected systemic bioavailability [1]: ~1%
- AUC0-24, geometric LSmean ([2]; human, 6 mg): 0.367351 ng·h/mL
- AUCinf, geometric LSmean ([2]; human, 6 mg): 0.915302 ng·h/mL
- AUClast, geometric LSmean ([2]; human, 6 mg): 0.789234 ng·h/mL
- Cmax, geometric LSmean ([2]; human, 6 mg): 0.0313 ng/mL
- maximum peak exposure, lower than morning-fast [2]: 19%
- between-subject variability (CV % Geo mean) of FP AUC(0-24h) [3]: > 55%
